Experimental data published in the supplement of paper PMC6045584.
± gives the standard deviation of the averaged measurements.

Each test system was assayed with Cc1nc(Nc2n[nH]c3c2CN(C(=O)N[C@H](CN(C)C)c2ccccc2)C3(C)C)c2sccc2n1 (assay: surviving fraction relative to DMSO-only wells; higher = less growth inhibition). Conditions: 0.5 nM; exposure time: 5 days.
Procedure, shortened: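 Log-phase tumour cell lines were seeded at 250–500 cells per well in 384-well plates. After 24 hours they were exposed continuously for five days to inhibitors at 0.5, 1, 5, 10, 50, 100, 500 and 1000 nM. Viability was read by CellTiter-Glo luminescence after 10 minutes at room temperature, and surviving fraction is luminescence normalised to the median of DMSO-only wells. Each line was screened three times and kept only if replicate Pearson r >0.7 and median Z' >0.3.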

Row | Test System | surviving fraction
1 | HCC1806 BREAST | 0.842 ± 0.06
2 | HCC1954 BREAST | 1 ± 0.05
3 | HCT15 LARGE INTESTINE | 0.998 ± 0.043
4 | HELA CERVIX | 1.1 ± 0.061
5 | HMLE3 BREAST | 1.01 ± 0.11
6 | HMT3552 BREAST | 0.986
7 | HOS BONE | 1.02 ± 0.018
8 | HOSMNG BONE | 0.981 ± 0.063
9 | HS57T BREAST | 0.895 ± 0.062
10 | HS578T BREAST | 0.767 ± 0.024
11 | HSSYII SYNOVIAL | 0.679 ± 0.029
12 | HT1080 SOFT TISSUE | 0.98 ± 0.024
13 | HU09 BONE | 0.811 ± 0.053
14 | JIMT1 BREAST | 0.993 ± 0.035
15 | JURKAT HAEMATOPOIETIC AND LYMPHOID TISSUE | 1.01 ± 0.032
16 | KPD BONE | 0.632 ± 0.036
17 | LM7 BONE | 0.842 ± 0.039
18 | MCF7 BREAST | 0.89 ± 0.077
19 | MDAMB134 BREAST | 0.805 ± 0.016
20 | MDAMB157 BREAST | 0.841 ± 0.14
21 | MDAMB231 BREAST | 0.964 ± 0.023
22 | MDAMB361 BREAST | 1.028 ± 0.0062
23 | MDAMB436 BREAST | 0.952 ± 0.044

Same assay, conditions: 1 nM; exposure time: 5 days

Row | Test System | surviving fraction
24 | 22RV1 PROSTATE | 0.783 ± 0.078
25 | 93VU HEADNECK | 0.883 ± 0.045
26 | 143B BONE | 0.969 ± 0.015
27 | A549 LUNG | 0.952 ± 0.064
28 | ASKA SYNOVIAL | 1.09 ± 0.022
29 | BT20 BREAST | 1.11 ± 0.056
30 | BT549 BREAST | 0.928 ± 0.064
31 | CADOES1 SOFT TISSUE | 0.865 ± 0.035
32 | CAL51 BREAST | 0.765 ± 0.047
33 | CAL120 BREAST | 0.599 ± 0.021
34 | CASKI CERVIX | 0.472 ± 0.0095
35 | CHLA90 AUTONOMIC GANGLIA | 0.826 ± 0.037
36 | CME SYNOVIAL | 1.32 ± 0.047
37 | COLO320DM LARGE INTESTINE | 1.04 ± 0.041
38 | DU4475 BREAST | 0.452 ± 0.065
39 | H23 LUNG | 0.929 ± 0.051
40 | HCC38 BREAST | 0.943 ± 0.17
41 | HCC70 BREAST | 0.895 ± 0.096
42 | HCC78 LUNG | 0.967 ± 0.1
43 | HCC202 BREAST | 1.12 ± 0.07
44 | HCC1806 BREAST | 0.521 ± 0.022
45 | HCC1954 BREAST | 0.88 ± 0.12

Row | Test System | surviving fraction
46 | HCT15 LARGE INTESTINE | 1.019 ± 0.009
47 | HELA CERVIX | 1.11 ± 0.056
48 | HMLE3 BREAST | 0.883 ± 0.026
49 | HMT3552 BREAST | 0.77
50 | HOS BONE | 0.957 ± 0.014
51 | HOSMNG BONE | 0.995 ± 0.065
52 | HS57T BREAST | 0.685 ± 0.022
53 | HS578T BREAST | 0.713 ± 0.019
54 | HSSYII SYNOVIAL | 0.789 ± 0.13
55 | HT1080 SOFT TISSUE | 0.859 ± 0.018
56 | HU09 BONE | 0.67 ± 0.084
57 | JIMT1 BREAST | 0.985 ± 0.03
58 | JURKAT HAEMATOPOIETIC AND LYMPHOID TISSUE | 0.939 ± 0.02
59 | KPD BONE | 0.569 ± 0.027
60 | LM7 BONE | 0.674 ± 0.036
61 | MCF7 BREAST | 0.857 ± 0.024
62 | MDAMB134 BREAST | 0.954 ± 0.014
63 | MDAMB157 BREAST | 0.792 ± 0.055
64 | MDAMB231 BREAST | 0.923 ± 0.029
65 | MDAMB361 BREAST | 1.13 ± 0.074
66 | MDAMB436 BREAST | 1 ± 0.066

Same assay, conditions: 5 nM; exposure time: 5 days

Row | Test System | surviving fraction
67 | 22RV1 PROSTATE | 0.334 ± 0.035
68 | 93VU HEADNECK | 0.39 ± 0.012
69 | 143B BONE | 0.726 ± 0.032
70 | A549 LUNG | 0.988 ± 0.064
71 | ASKA SYNOVIAL | 0.4283 ± 0.0031
72 | BT20 BREAST | 1.34 ± 0.025
73 | BT549 BREAST | 0.299 ± 0.035
74 | CADOES1 SOFT TISSUE | 0.953 ± 0.11
75 | CAL51 BREAST | 0.281 ± 0.017
76 | CAL120 BREAST | 0.364 ± 0.019
77 | CASKI CERVIX | 0.237 ± 0.0071
78 | CHLA90 AUTONOMIC GANGLIA | 0.58 ± 0.045
79 | CME SYNOVIAL | 0.564 ± 0.077
80 | COLO320DM LARGE INTESTINE | 1.11 ± 0.035
81 | DU4475 BREAST | 0.138 ± 0.048
82 | H23 LUNG | 0.578 ± 0.032
83 | HCC38 BREAST | 0.291 ± 0.038
84 | HCC70 BREAST | 0.275 ± 0.035
85 | HCC78 LUNG | 0.323 ± 0.047
86 | HCC202 BREAST | 0.855 ± 0.24
87 | HCC1806 BREAST | 0.0733 ± 0.0085
88 | HCC1954 BREAST | 0.43 ± 0.044

Row | Test System | surviving fraction
89 | HCT15 LARGE INTESTINE | 1.04 ± 0.03
90 | HELA CERVIX | 0.936 ± 0.026
91 | HMLE3 BREAST | 0.295 ± 0.02
92 | HMT3552 BREAST | 0.376
93 | HOS BONE | 0.583 ± 0.02
94 | HOSMNG BONE | 1.02 ± 0.11
95 | HS57T BREAST | 0.366 ± 0.02
96 | HS578T BREAST | 0.506 ± 0.064
97 | HSSYII SYNOVIAL | 0.271 ± 0.021
98 | HT1080 SOFT TISSUE | 0.295 ± 0.0038
99 | HU09 BONE | 0.473 ± 0.049
100 | JIMT1 BREAST | 0.888 ± 0.029
101 | JURKAT HAEMATOPOIETIC AND LYMPHOID TISSUE | 0.169 ± 0.0038
102 | KPD BONE | 0.425 ± 0.042
103 | LM7 BONE | 0.51 ± 0.0046
104 | MCF7 BREAST | 0.621 ± 0.036
105 | MDAMB134 BREAST | 0.909 ± 0.029
106 | MDAMB157 BREAST | 0.623 ± 0.11
107 | MDAMB231 BREAST | 0.667 ± 0.012
108 | MDAMB361 BREAST | 1.1 ± 0.065
109 | MDAMB436 BREAST | 0.932 ± 0.07

Same assay, conditions: 10 nM; exposure time: 5 days

Row | Test System | surviving fraction
110 | 22RV1 PROSTATE | 0.321 ± 0.051
111 | 93VU HEADNECK | 0.298 ± 0.044
112 | 143B BONE | 0.494 ± 0.011
113 | A549 LUNG | 0.578 ± 0.021
114 | ASKA SYNOVIAL | 1.16 ± 0.16
115 | BT20 BREAST | 1.28 ± 0.013
116 | BT549 BREAST | 0.232 ± 0.034
117 | CADOES1 SOFT TISSUE | 0.957 ± 0.14
118 | CAL51 BREAST | 0.181 ± 0.0083
119 | CAL120 BREAST | 0.287 ± 0.0047
120 | CASKI CERVIX | 0.193 ± 0.0081
121 | CHLA90 AUTONOMIC GANGLIA | 0.477 ± 0.018
122 | CME SYNOVIAL | 1.42 ± 0.17
123 | COLO320DM LARGE INTESTINE | 1.1 ± 0.072
124 | DU4475 BREAST | 0.0743 ± 0.013
125 | H23 LUNG | 0.35 ± 0.025
126 | HCC38 BREAST | 0.255 ± 0.029
127 | HCC70 BREAST | 0.089 ± 0.014
128 | HCC78 LUNG | 0.454 ± 0.14
129 | HCC202 BREAST | 0.754 ± 0.042
130 | HCC1806 BREAST | 0.0613 ± 0.0081
131 | HCC1954 BREAST | 0.466 ± 0.0085

Row | Test System | surviving fraction
132 | HCT15 LARGE INTESTINE | 1.04 ± 0.011
133 | HELA CERVIX | 0.741 ± 0.02
134 | HMLE3 BREAST | 0.144 ± 0.0049
135 | HMT3552 BREAST | 0.287
136 | HOS BONE | 0.409 ± 0.03
137 | HOSMNG BONE | 0.944 ± 0.025
138 | HS57T BREAST | 0.305 ± 0.019
139 | HS578T BREAST | 0.504 ± 0.05
140 | HSSYII SYNOVIAL | 0.281 ± 0.0072
141 | HT1080 SOFT TISSUE | 0.249 ± 0.013
142 | HU09 BONE | 0.425 ± 0.081
143 | JIMT1 BREAST | 0.839 ± 0.047
144 | JURKAT HAEMATOPOIETIC AND LYMPHOID TISSUE | 0.095 ± 0.0044
145 | KPD BONE | 0.344 ± 0.011
146 | LM7 BONE | 0.457 ± 0.046
147 | MCF7 BREAST | 0.746 ± 0.035
148 | MDAMB134 BREAST | 0.924 ± 0.02
149 | MDAMB157 BREAST | 0.545 ± 0.019
150 | MDAMB231 BREAST | 0.591 ± 0.019
151 | MDAMB361 BREAST | 1.02 ± 0.072
152 | MDAMB436 BREAST | 0.856 ± 0.071

Same assay, conditions: 50 nM; exposure time: 5 days

Row | Test System | surviving fraction
153 | 22RV1 PROSTATE | 0.348 ± 0.018
154 | 93VU HEADNECK | 0.24 ± 0.018
155 | 143B BONE | 0.293 ± 0.033
156 | A549 LUNG | 0.38 ± 0.033
157 | ASKA SYNOVIAL | 0.43 ± 0.027
158 | BT20 BREAST | 0.841 ± 0.11
159 | BT549 BREAST | 0.0943 ± 0.0086
160 | CADOES1 SOFT TISSUE | 0.764 ± 0.047
161 | CAL51 BREAST | 0.0752 ± 0.002
162 | CAL120 BREAST | 0.242 ± 0.03
